Structures are written as SMILES.

The text below walks through data of patent publication US8691864B2, “Agents useful for reducing amyloid precursor protein and treating dementia and methods of use thereof” (priority 2000, dated 2014).

Data set [1] concerns βAPP. The data set is described as follows: βAPP levels in brain cortex and CSF of transgenic mice. It is filed as in vivo. Conditions: 2.5 mg/kg i.p., once daily for 3 weeks.
Data set [2] deals with APP. Put plainly: rate of APP synthesis in SH-SY5Y cells (35S labelling, immunoprecipitation). It is filed as cell-based, human. Conditions: 10 μM, 16 hours. As to the method: 8×10^6 SHSY-5Y cells were plated on 100 mm dishes with DMEM containing 10% FBS. After 36 hours, the culture medium was replaced with DMEM containing 0.5% FBS. The cells were incubated with low serum medium for 1 hour. Thereafter, the medium was replaced with fresh low serum medium with and without 10 μM of phenserine for 16 hours.
After treatment with methionine and cystine free medium, 2 ml of ^35S-labeled DMEM ([…]) with and without phenserine (10 μM) were added and incubated for 10 minutes. Thereafter, the labeled medium was carefully removed and the cells were suspended in lysis buffer containing with protease inhibitors and frozen at −80° C. for use in the immunoprecipitation assay.
APP protein was immunoprecipitated from 300 μig of total protein in each sample using the polyclonal antibody O443, which recognizes a 20 amino acid sequence in the carboxy terminal of APP, and protein A/G resin overnight at 4° C. Immunoprecipitated APP was eluted from the protein AJG resin with 30 μl of elution buffer (10% beta-mercaptoethanol). The samples were loaded onto 10% trys-glycine 10 gels, and the proteins were separated at 150 V for 90 min. The gels were fixed and dried at 80° C. for 60 min. The dried gels were exposed to Phosphor Screen (PACKARD Instrument Company, Inc., Meriden, Conn.) overnight and the βAPP signals were quantitated on a phosphor imager. […]

The subject of data set [3] is total Aβ peptide. The data set is described as follows: total Aβ ELISA in SK-N-SH conditioned medium. It is filed as cell-based, human. The conditions noted are these: 50 μM. As to the method:
Total Aβ peptide levels in SH-SY-SY and SK-N-SH cultured samples were assayed by a sensitive ELISA (Suzuki et al., 1994). For total Aβ measurements in conditioned medium, the rabbit polyclonal antibody #3160 (1-40 residues of Aβ) was used as a capture antibody for all species of Aβ peptide (Aβ1-40 and Aβ1-42) while monoclonal antibody 4G8 (17-25 residues of Aβ) was used to detect Aβ peptide levels, and the values were expressed as the mean of six independent assays.
Likewise, (+)-phenserine reduced BAPP protein levels and total Aβ peptide levels at 16 hours (FIG. 5).
(In an ELISA, binding on a coated surface is turned into a signal by an enzyme label.)

Data set [4] deals with SK-N-SH cells. The data set is described as follows: LDH assay / cell number and viability, SK-N-SH cells. In kind it is cell-based, human. The text has this: Measurement of released lactate dehydrogenase (LDH) in the conditioned medium was undertaken as a marker of cell viability and integrity, as described previously (Lahiri et al., 1997 and 1998).
This was not associated with cellular dysfunction, as determined by measurement of LDH levels versus untreated controls (FIG. 4C).

For the compound `CN1CC[C@@]2(C)c3cc(OC(=O)Nc4ccccc4)ccc3N(C)[C@@H]12` [(−)-phenserine], the “reduction of βAPP levels in CSF” value in data set [1] turned out to be 55%. Moreover, the “reduction of βAPP synthesis” value in data set [2] is on record as 52%. The “reduction of total Aβ versus untreated controls” value in data set [3] (8 hours) came to 14%; in data set [3] (16 hours), 31%. Besides, the “LDH levels in media” value in data set [4] (SK-N-SH, 50 μM, up to 16 hours) was “no significant difference between treated and untreated levels”. Further, the “toxicity as assessed by an LDH assay” value in data set [4] (SK-N-SH, 0.5, 5 or 50 μM, 16 hours) was “no significant toxicity”.
